The record followed here is patent US20230088774A1, “Herbicide Combinations Comprising Glufosinate and Oxadiazon” (BASF SE, priority 2020, published 2023).

Common to all, as to details: 504 h
Experiment [1] concerns Echinochloa crus-galli (ECHCG). In words: Greenhouse post-emergence weed control, barnyardgrass. The format is in vivo. From the text:
(§1) For post-emergence treatments, glufosinate and oxadiazon, which had been suspended in water, were applied using spray nozzles providing fine to coarse droplets.
(§2) The herbicide compounds applied in the examples were used as experimental or commercially available solo or premix formulations which have been diluted with tap water to a suitable concentration. Glufosinate was used as a commercial SL formulation containing 280 g ai/l of glufosinate (Liberty 280 SL, BASF). While the PPO herbicide Ronstar Flo containing 380 g ai/l oxadiazon was used (Ronstar Flo, Bayer) formulation.
(§3) The evaluation for plant injury or damage caused by the chemical compositions was carried out using a scale from 0-100% when compared with the untreated control plants. Here, 0 means no damage and 100 means complete destruction of the plants.
(§4) 22., E=X+Y−(X*Y/100), where
(§5) X=effect in percent using herbicide A at an application rate of a;
(§6) Y=effect in percent using herbicide B at an application rate of b;
(§7) E=expected effect (in %) of A+B at application rates a+b.
(§8) The value E corresponds to the effect (plant damage or injury) which is to be expected if the activity of the individual compounds is just additive. If the observed effect is higher than the value E calculated according to Colby, a synergistic effect is present. […]

For experiment [2], the system named is Amaranthus Palmerii (AMAPA). In words: Greenhouse post-emergence weed control, Palmer amaranth. The format is in vivo, Amaranthus palmeri.
Source text: as §1, §2, §3, §4, §5, §6, §7, §8

The subject of experiment [3] is Amaranthus tamariscinus (AMATA). In words: Greenhouse post-emergence weed control, common waterhemp. The format is in vivo.
Source text: as §1, §2, §3, §4, §5, §6, §7, §8

Experiment [4] has as its system Lolium multiflorum (LOLMU). In words: Greenhouse post-emergence weed control, Italian ryegrass. The format is in vivo.
Source text: as §1, §2, §3, §4, §5, §6, §7, §8

Setting [5] is: post-emergence, read-out: Solo Glufosinate % activity.

In the case of `CC(C)Oc1cc(-n2nc(C(C)(C)C)oc2=O)c(Cl)cc1Cl` [Oxadiazon], the inhibition at 0.8 g/ha is 30% in experiment [1] (ECHCG, 0.8 g ai/ha post-emergence, 1% (v/v) MSO, 21 DAT, scale 0-100% injury, read-out: Solo Oxadiazon % activity); 27% in experiment [2] (AMAPA, 0.8 g ai/ha post-emergence, 1% (v/v) MSO, 21 DAT, scale 0-100% injury, read-out: Solo Oxadiazon % activity); 28% in experiment [3] (AMATA, 0.8 g ai/ha post-emergence, 1% (v/v) MSO, 21 DAT, scale 0-100% injury, read-out: Solo Oxadiazon % activity); 28% in experiment [4] (LOLMU, 0.8 g ai/ha post-emergence, 1% (v/v) MSO, 21 DAT, scale 0-100% injury, read-out: Solo Oxadiazon % activity).
Turning to `CP(=O)(O)CCC(N)C(=O)O` (racemic) [Glufosinate, (2RS)-2-amino-4-[hydroxy(methyl)phosphinoyl]butyric acid], the inhibition at 327 g/ha in experiment [1] (setting [5]) turned out to be 40%; in experiment [2] (setting [5]), 94%; in experiment [3] (setting [5]), 93%; in experiment [4] (setting [5]) it was 33%.
